Assay results published in patent publication US20220211792A1, “COMPOSITION CONTAINING NATURAL EXTRACTS FOR ENHANCEMENT OF INNATE IMMUNITY OR ANTIVIRAL USE AGAINST INFLUENZA VIRUS OR CORONA VIRUS” (OKCHUNDANG CO., LTD., priority 2021, published 2022).

Tests used:
[1] = test system: influenza virus A/PR/8/34-GFP; type: cell-based
IAV = type: cell-based, influenza A virus
[2] = test system: influenza virus (A/PR/8/34-GFP); type: cell-based

| Molecule | level of GFP compared with untreated cells [1] | levels of IAV proteins compared with untreated cells (IAV) | GFP (influenza virus infection rate) [2] |
| --- | --- | --- | --- |
| O=C(/C=C/c1ccc(O)c(O)c1)O[C@@H]1C[C@](O)(C(=O)O)C[C@@H](O)[C@H]1O [chlorogenic acid] | lower | suppressed | – |
| CC(C)=CCC[C@](C)(O[C@@H]1O[C@H](CO)[C@@H](O)[C@H](O)[C@H]1O)[C@H]1CC[C@]2(C)[C@@H]1[C@H](O)C[C@@H]1[C@@]3(C)CC[C@H](O[C@@H]4O[C@H](CO)[C@@H](O)[C@H](O)[C@H]4O[C@@H]4O[C@H](CO)[C@@H](O)[C@H](O)[C@H]4O)C(C)(C)[C@@H]3CC[C@]12C [ginsenoside Rd] | lower | suppressed | – |
| IFN-β: mouse IFN-β (1,000 units/ml), positive control (protein, UniProt P01575 22-182, looked up) Interferon beta: INYKQLQLQERTNIRKCQELLEQLNGKINLTYRADFKIPMEMTEKMQKSYTAFAIQEMLQNVFLVFRNNFSSTGWNETIVVRLLDELHQQTVFLKTVLEEKQEERLTWEMSSTALHLKSYYWRVQRYLKLMKYNSYAWMVVRAEIFRNFLIIRRLTRNFQN | – | – | 1.45 |
